# Results: publication PMC11313193, “Which Constituents Determine the Antioxidant Activity and Cytotoxicity of Garlic? Role of Organosulfur Compounds and Phenolics” (International Journal of Molecular Sciences, 2024)
# Experiments:
# [1] = tested on: MCF-7 breast cancer cells; set-up: method as in PMID 34626309; conditions: 24 h exposure, cited from earlier work
# [2] = tested on: cervical squamous carcinoma SiHa cells; set-up: method as in PMID 30783417; conditions: 50 nM, 24 h exposure; cited from earlier work
# [3] = tested on: U87MG human glioblastoma cells; set-up: method as in PMID 22552443; conditions: 24 h exposure, cited from earlier work
# [4] = ABTS^● decolorization assay; conditions: 30 min incubation at room temperature, absorbance at 734 nm
# Protocol: A modification of the ABTS^● decolorization assay was employed. Briefly, various volumes of solutions of the studied compounds were introduced to wells of a 96-well microplate, each prefilled 200 μL of ABTS^● solution. […] The drop in absorbance after 30 min incubation at room temperature was read as a measure of the antioxidant activity.
# (§1) All assays were standardized with respect to Trolox. The antioxidant activity was calculated in each case as a ratio of the slope of the dependence of absorbance change on the concentration of a studied compound to the slope of the dependence of absorbance change of standard samples concerning Trolox on the concentration of Trolox. Antioxidant activities were expressed in moles of Trolox equivalents (TE)/mol of a studied compound, as described previously.
# [5] = tested on: SKOV-3 ovarian cancer cells; experiment: Cytotoxicity (Neutral Red), SKOV-3 cells; format: cell-based, human; conditions: 24 h exposure
# Protocol: (§2) The PEO1 cells, SKOV-3 cells, and MRC-5 cells were grown at 37 °C and 5% CO2 in RPMI + GlutaMAX medium, McCoy’s 5A medium, and the DMEM + GlutaMAX medium, respectively. The media were supplemented with 10% heat-inactivated fetal calf serum and penicillin/streptomycin. The cell viability was evaluated using the Trypan Blue exclusion test.
# (§3) In the cytotoxicity experiments, cells were grown in wells of sterile 96-well plates. The seeding density was 1 × 10^4 for SKOV-3 and MRC-5 cells and 1.5 × 10^4 for PEO1 cells. The cells were allowed to grow in the incubator for 24 h. Then, the medium was removed and new medium with an examined compound was added. The stock solutions of the compounds studied diluted with the appropriate cell medium were filtered before the addition to the cells using 0.22 µm filters. No more than 0.02% of DMSO was present in the media, and it had no discernible impact on the treated cells. Cells not exposed to any compound served as a control. After another 24 h incubation, the medium was gently aspirated, and the wells were added with 2% sterile Neutral Red solution (100 µL). The plates were then incubated (37 °C, 5% CO2) for one hour. The Neutral Red solution was aspirated, and the wells were washed two times with warm (37 °C) PBS. Subsequently, 100 µL of a permeabilization mixture (water/ethanol/glacial acetic acid, 50/49/1, v/v/v) was introduced to each well. The plates were shaken at 700 rpm for 20 min and absorbance was read at a wavelength of 540 nm against 620 nm.
# [6] = tested on: MRC-5 fibroblasts; experiment: Cytotoxicity (Neutral Red), MRC-5 fibroblasts; format: cell-based, human; conditions: 24 h exposure
# Protocol: as §2, §3
# [7] = tested on: gastric carcinoma AGS cells; set-up: method as in PMID 15911108; conditions: 24 h exposure, cited from earlier work
# [8] = tested on: SKOV-3 cells; set-up: method as in PMID 25097657; conditions: 24 h exposure, cited from earlier work
# [9] = set-up: method as in PMID 17312965; conditions: cited from earlier work
# [10] = Ferric reducing antioxidant power (FRAP) assay; conditions: 30 min at ambient temperature, pH 3.6, absorbance at 593 nm
# Protocol: The method proposed by Benzie and Strain [91] was employed with a slight modification. Briefly, increasing volumes of solutions of the studied compounds were added to wells of a 96-well microplate prefilled with 200 μL of the working solution composed of 0.3 M acetate buffer, pH 3.6 (10 volumes), 10 mM 2,4,6-tris(2-pyridyl)-s-triazine (TPTZ), in 40 mM HCl (1 volume) and 20 mM FeCl3 (1 volume), was prepared immediately before use. After 30 min incubation at ambient temperature and the absorbance of the Fe^2+-TPTZ complex was read at 593 nm.
# as §1
# [11] = tested on: breast cancer HCC-70 cells; set-up: method as in PMID 32286702; conditions: 24 h exposure; read-out: Concentration lowering viability of HCC-70 cells to 50%; cited from earlier work
# [12] = DPPH^● decolorization assay; conditions: 30 min at ambient temperature in the dark, absorbance at 517 nm
# Protocol: The assay was performed as described in a previous article. Briefly, increasing volumes of solutions of the studied compounds were introduced to wells of a 96-well microplate, each with 200 μL of 0.3 mM DPPH^● solution in methanol. The reaction was allowed to proceed for 30 min at ambient temperature in the dark, and absorbance at 517 nm was read. The absorbance decrease was a measure of the antioxidant activity.
# as §1
# [13] = tested on: MDA-MB-231 breast cancer cells; set-up: method as in PMID 34626309; conditions: 24 h exposure, cited from earlier work
# [14] = tested on: U251 glioma cells; set-up: method as in PMID 29436625; conditions: 24 h exposure, cited from earlier work
# [15] = tested on: breast cancer MCF-7 cells; set-up: method as in PMID 32286702; conditions: 24 h exposure; read-out: Concentration lowering viability of MCF-7 cells to 50%; cited from earlier work
# [16] = tested on: microsomal lipid peroxidation; set-up: method as in PMID 16822206; conditions: cited from earlier work
# [17] = tested on: PEO1 ovarian cancer cells; experiment: Cytotoxicity (Neutral Red), PEO1 cells; format: cell-based, human; conditions: 24 h exposure
# Protocol: as §2, §3
# [18] = tested on: SGC7901 human gastric adenocarcinoma cells; set-up: method as in PMID 21042755; conditions: 120 μg/mL (i.e., ca. 0.74 mM), 24 h exposure; cited from earlier work
# [19] = in the concentration range studied
smiles,measurement,setting,value
"C=CCS[S+]([O-])CC=C (stereo not drawn) [Allicin, S-(prop-2-en-1-yl)prop-2-ene-1-sulfinothioate]",IC50,"[1]; converted from μg/mL, read-out: Concentration lowering survival of MCF-7 cells by 50%",~43 µM
same,Concentration lowering survival of MCF-7 cells by 50%,[1],about 7 μg/mL
same,SiHa cell viability (decreased to),[2],ca. 60%
same,IC50,"[3]; converted, read-out: Concentration reducing viability of U87MG glioblastoma cells to 50%",550 µM
same,Concentration reducing viability of U87MG glioblastoma cells to 50%,[3],ca. 90 /mL μg
same,"Antioxidant activity, ABTS^● Decolorization",[4],−0.038 ± 0.020 mol Trolox equivalents (TE)/mol compound
same,IC50,"[5]; Homo sapiens, SK-OV-3, Neutral Red, read-out: IC50 SKOV-3",236 µM
same,Effect on viability of SKOV-3 cells,[5]; [19],did not significantly lower the viability
same,Concentration at which viability of MRC-5 cells was lowered,[6]; p < 0.05,100 µM
same,IC50,"[6]; Homo sapiens, MRC5, Neutral Red, read-out: IC50 MRC-5",120 µM
same,IC50,"[7]; converted from μg/mL, read-out: Concentration diminishing survival of AGS cells to ca. 50%",~62 µM
same,Concentration diminishing survival of AGS cells to ca. 50%,[7],10 µg/mL
same,IC50,"[8]; converted from μg/mL, read-out: Concentration reducing viability of SKOV-3 cells to 50%",430 to 490 µM
same,Concentration reducing viability of SKOV-3 cells to 50%,[8],70 to 80 µg/mL
same,Reaction rate constant with cumene peroxyl radicals,[9],2600 M⁻¹ s⁻¹
same,"Antioxidant activity, FRAP",[10],−0.0014 ± 0.0016 mol Trolox equivalents (TE)/mol compound
same,IC50,[11],~10 µM
same,"Antioxidant activity, DPPH^● Decolorization",[12],−0.023 ± 0.009 mol Trolox equivalents (TE)/mol compound
same,IC50,"[13]; converted from μg/mL, read-out: Concentration lowering survival of MDA-MB-231 cells by 50%",~111 µM
same,Concentration lowering survival of MDA-MB-231 cells by 50%,[13],about 18 μg/mL
same,IC50,"[14]; converted from μg/mL, read-out: Concentration reducing viability of U251 glioma cells to 50%",247 µM
same,Concentration reducing viability of U251 glioma cells to 50%,[14],ca. 40 μg/mL
same,IC50,[15],~15 µM
same,Termination of lipid peroxidation / prevention of induced microsomal lipid peroxidation,[16],ineffective
same,IC50,"[17]; Homo sapiens, PEO1, Neutral Red, read-out: IC50 PEO1",282 µM
same,Effect on viability of PEO1 cells,[17]; [19],did not significantly lower the viability
same,Decrease in the survival of SGC7901 cells,[18],ca. 25%
